≈ marks a conversion by molar mass, not a printed value. Read-outs that look alike come from different tables or passages of the source.
Columns and labels:
Test in all cases: MIC, broth microdilution
[1] = system: 207 Enterobacterales including carbapenem-resistant isolates; assay type: cell-based
[2] = system: serine-carbapenemase-producing isolates (Enterobacterales); assay type: cell-based; conditions: Enterobacterales with serine-carbapenemases (80)
[3] = system: MBL-producing isolates (Enterobacterales); assay type: cell-based; conditions: for MIC90: read-out: MIC90
96 P. aeruginosa = assay type: cell-based, Pseudomonas aeruginosa; conditions: Pseudomonas aeruginosa (96)
[4] = system: E. coli CDC-119 (NDM-1), PBP3 mutations; assay type: cell-based; conditions: Escherichia coli
[5] = system: E. coli CDC-137 (NDM-6), PBP3 mutations; assay type: cell-based; conditions: Escherichia coli, fixed BLI concentration (μg/mL) in parentheses in label
[6] = system: E. coli CDC-149 (NDM-7), PBP3 mutations; assay type: cell-based; conditions: Escherichia coli
[7] = system: E. coli CDC-435 (NDM-1), PBP3 mutations; assay type: cell-based; conditions: Escherichia coli, fixed BLI concentration (μg/mL) in parentheses in label
[8] = system: MEM-nonsusceptible Enterobacterales with serine-carbapenemases; assay type: cell-based; conditions: MEM-nonsusceptible Enterobacterales with serine-carbapenemases (58)
[9] = system: MEM-nonsusceptible Enterobacterales with metallo-carbapenemases; assay type: cell-based; conditions: MEM-nonsusceptible Enterobacterales with metallo-carbapenemases (55), cefiderocol 54 isolates
[10] = All Enterobacterales (207), cefiderocol 205 isolates, CLSI breakpoints, marked c: breakpoints for β-lactam alone, tigecycline: FDA breakpoints
[11] = CLSI breakpoints, marked c: breakpoints for β-lactam alone, tigecycline: FDA breakpoints
[12] = fixed concentration (μg/mL) in label
[13] = fixed concentration (μg/mL) in label, read-out: MIC50
[14] = fixed concentration (μg/mL) in label, read-out: MIC90
[15] = Enterobacterales with metallo-carbapenemases (74), cefiderocol 73 isolates, CLSI breakpoints, marked c: breakpoints for β-lactam alone, tigecycline: FDA breakpoints
[16] = CLSI breakpoints, marked c: breakpoints for β-lactam alone

CC(C)(O/N=C(\C(=O)N[C@@H]1C(=O)N2C(C(=O)[O-])=C(C[N+]3(CCNC(=O)c4ccc(O)c(O)c4Cl)CCCC3)CS[C@H]12)c1csc(N)n1)C(=O)O [FDC, cefiderocol] was tested, and the “CLSI MIC interpretation I (intermediate)” value [1, 10] was 2%, the “CLSI MIC interpretation R (resistant)” value [1, 10] was 0.5% and the “CLSI MIC interpretation S (susceptible)” value [1, 10] was 97.6%. The MIC50 ([1]; read-out: MIC50) was 0.5 µg/mL (≈ 0.665 µM), the MIC90 ([1]; read-out: MIC90) was 2 µg/mL (≈ 2.66 µM) and the “CLSI MIC interpretation I (intermediate)” value [2, 11] was 0%. The “CLSI MIC interpretation R (resistant)” value [2, 11] was 0%, the “CLSI MIC interpretation S (susceptible)” value [2, 11] was 100% and the “MIC Range” value [2, 12] was no more than 0.06 to 4 µg/mL. The MIC50 [2, 13] was 0.25 µg/mL (≈ 0.332 µM), the MIC90 [2, 14] was 2 µg/mL (≈ 2.66 µM) and the “CLSI MIC interpretation I (intermediate)” value [3, 15] was 5.5%. For the same compound, the “CLSI MIC interpretation R (resistant)” value [3, 15] was 1.4%, the “CLSI MIC interpretation S (susceptible)” value [3, 15] was 93.2% and the MIC50 ([3]; Enterobacterales with metallo-carbapenemases (74), cefiderocol 73 isolates, fixed concentration (μg/mL) in label, read-out: MIC50) was 1 µg/mL (≈ 1.33 µM). The MIC90 ([3]; Enterobacterales with metallo-carbapenemases (74), cefiderocol 73 isolates, fixed concentration (μg/mL) in label) was 4 µg/mL (≈ 5.32 µM), the MIC90 ([3]; MBL-producing isolates, comparators) was no more than 4 µg/mL and the “CLSI MIC interpretation I (intermediate)” value (96 P. aeruginosa; [16]) was 0%. For the same compound, the “CLSI MIC interpretation R (resistant)” value (96 P. aeruginosa; [16]) was 0%, the “CLSI MIC interpretation S (susceptible)” value (96 P. aeruginosa; [16]) was 100% and the “MIC Range” value (96 P. aeruginosa; [12]) was no more than 0.06 to 4 µg/mL. For the same compound, the MIC50 (96 P. aeruginosa; [13]) was 0.5 µg/mL (≈ 0.665 µM), the MIC90 (96 P. aeruginosa; [14]) was 2 µg/mL (≈ 2.66 µM) and the MIC [4] was 0.5 µg/mL (≈ 0.665 µM). The MIC [5] was 2 µg/mL (≈ 2.66 µM), the MIC [6] was 16 µg/mL (≈ 21.3 µM) and the MIC [7] was 4 µg/mL (≈ 5.32 µM). For the same compound, the “CLSI MIC interpretation I (intermediate)” value [8, 11] was 0%, the “CLSI MIC interpretation R (resistant)” value [8, 11] was 0% and the “CLSI MIC interpretation S (susceptible)” value [8, 11] was 100%. The “MIC Range” value [8, 12] was no more than 0.06 to 4 µg/mL, the MIC50 [8, 13] was 0.5 µg/mL (≈ 0.665 µM) and the MIC90 [8, 14] was 2 µg/mL (≈ 2.66 µM). The “CLSI MIC interpretation I (intermediate)” value [9, 11] was 7.4%, the “CLSI MIC interpretation R (resistant)” value [9, 11] was 1.9% and the “CLSI MIC interpretation S (susceptible)” value [9, 11] was 90.7%. The MIC50 [9, 13] was 1 µg/mL (≈ 1.33 µM) and the MIC90 [9, 14] was 4 µg/mL (≈ 5.32 µM).
